Experimental data published in patent US20100009949A1, “NOVEL METHOD” (BioXell S.p.A., priority 2001, published 2010).

What was measured:
DU145 cells [1] = test: Cell proliferation assay (cell counting), DU145; format: cell-based, human
Method: (§1) Cell proliferation assay: All proliferation tests were performed after 24 h of cell starvation in phenol red- and serum-free medium containing 0.1% BSA. After starvation, cells were incubated in the same medium as before, with or without specific stimuli. Thereafter, cells were trypsinized, and each experimental point was derived from counting in the hemocytometer and then averaging at least six different fields for each well as previously reported (Crescioli et al. 2003). Experiments were performed seeding 4×10^4 cells onto 12-well plates in growth medium and incubated for 48 h with: 1) increasing concentrations of 1-alpha-fluoro-25-hydroxy-16,23E-diene-26,27-bishomo-20-epi-cholecalciferol (1×10^−12, 1×10^−11, 1×10^−10, 1×10^−9, 1×10^−8 M) with or without fixed concentration of KGF (10 ng/ml) or fixed concentration of bFGF (10 ng/ml); 2) fixed concentration of LY 294002 (10 nM) with or without KGF (10 ng/ml). In the same experiment each experimental point was repeated in triplicate and experiments were performed at least three times. Cell growth results are expressed as the percentage of growth compared with their relative controls.
Statistical analysis: All the data are shown as mean±SEM of the indicated number of experiments. Statistical analysis was performed with ANOVA and Student's T test for unpaired and, when applicable, for paired data. IC50 for dose response curves were calculated using the program ALLFIT.

PC3 cells = test: Cell proliferation assay (cell counting), PC3; format: cell-based, human; conditions: control 100±17
Method: as §1

DU145 cells [2] = test: Annexin-V binding assay (phosphatidylserine exposure, apoptosis); format: cell-based, human; conditions: DU145, 8 hours, 1×10^−8 M; control 57±1.7; n=6, p=0.017
Method: Annexin-V binding assay. Annexin-V binding assay was used to detect translocation of membrane phosphatidylserine (PS) from the inner to the outer side of the plasma membrane, since the exposure of PS is considered an early sign of apoptosis (Kagan et al. 2000). The assay was performed by using the “Annexin-V-Fluos staining Kit” (Roche). Before treatment, cells (1×10^6) were kept in serum-free medium for at least 24 h, then cells were incubated for 8 hours in the presence or absence of Compound 1 (1×10^−8 M), cells (1×10^6) were washed, trypsinized, centrifuged. After two washed in PBS, cells were resuspended in 100 ul of incubation buffer (supplied by manufacturer), 2 ul of Annexin-V-Fluos labeling reagent (Ann-V-F, Annexin-V conjugated to fluorescein, supplied at the 200× concentration by Roche) and 2 ul of propidium iodide solution (PI, 30 ug/ml in PBS) were added. After incubation (15 minutes in the dark at room temperature) samples were analyzed by flow cytometry. For each experimental set, two cell suspensions were prepared for instrumental setting and data analysis: 1) by omitting both Ann-V-F and PI staining (nonspecific fluorescence sample), and 2) by omitting only the PI staining (sample for compensation, see below). […] Fluorescence compensation was set by acquiring […] labeled with only Ann-V-F. For each sample 10.000 events were recorded at flow rate of 200/300 cells/s. […]

DU145 cells [3] = test: Matrigel invasion assay (Boyden chambers), DU145; format: cell-based, human; conditions: 1×10^−8 M, KGF 10 ng/ml, 24 h, no pre-incubation
Method: Invasion assay: Invasion assays were performed as described previously (Bonaccorsi et al. 2000 and 2004a and 2004b) according to Albini et al. (1987) using the Boyden chambers equipped with 8 um porosity polyvinylpyrrolidone-free polycarbonate filters (VWR International, Milan, Italy). A thin layer of Matrigel solution (50 ug/ml) was overlaid on the upper surface of the filter and allowed to gel by incubating the filters at 37° C. for 30 min. Cell ability to invade the substrate was assessed by using some different stimuli: keratinocyte growth factor, KGF (10 ng/ml), in presence or in absence of the inhibitor, 1-alpha-fluoro-25-hydroxy-16,23E-diene-26,27-bishomo-20-epi-cholecalciferol (1×10^−8 M). These molecules were added to the bottom well of the Boyden chambers. 9.5×10^4 cells were then added to the top of the chambers and incubated for 24 h at 37° C. Migrated cells were quantitated by counting cells with a Zeiss microscope (Oberkochen, Germany) equipped with brightfield optics (40× magnification). Results are expressed as the percentage of number of migrated cells per high-power field respect to control.

KGF receptor (KGFR) = test: KGF-induced KGFR autotransphosphorylation (immunoprecipitation, Western blot) in DU145 cells; format: cell-based, human
Method: (§2) Immunoprecipitation and Western blot analysis. Protein extraction and immunoprecipitation were performed as previously described (Bonaccorsi et al. 1997). Briefly, cells were scraped in PBS supplemented with 1 mM Na3VO4, centrifuged and resuspended in lysis buffer (20 mM Tris, pH 7.4, 150 mM NaCl, 0.25% NP-40, 1 mM Na3VO4, 1 mM phenylmethyl-sulfonyl fluoride (PMSF)). After protein measurement (Coomassie kit), aliquots of cell lysates containing equal amount of proteins (500 ug) were incubated for 1 hour with 30 ul of Protein A (or Protein G)-Sepharose for preclearing. Precleared lysates were then incubated for 1 hour using 5 ug of specific anti-KGFR antibodies on ice followed by overnight incubation at 4° C. with 30 ul of Protein A (or Protein G)-Sepharose. The immunobeads were washed three times in lysis buffer and then resuspended in 10 ul of 2× Laemmli's reducing sample buffer (62.5 mM Tris pH 6.8, 10% glycerol, 2% SDS, 2.5% pyronin and 200 mM dithiothreitol), boiled at 95° C. for 5 minutes and loaded onto 8% polyacrylamide-bisacrylamide gels. […]

PI3K = PI3K assay (immunokinase) after KGF stimulation of DU145 cells; format: cell-based, human; conditions: DU145, 1×10^−8 M, KGF 10 ng/ml
Method: PI3K assay: PI3K activity was evaluated in vitro assay as previously described (Luconi et al. 2004). Briefly, cells were stimulated with KGF (5 min) in the presence or absence of 1-alpha-fluoro-25-hydroxy-16,23E-diene-26,27-bishomo-20-epi-cholecalciferol, scraped in PBS supplemented with 1 mM Na3VO4, centrifuged and extracted with lysis buffer (20 mM Tris, pH 7.4, 137 mM NaCl, 1 mM CaCl2, 1 mM MgCl2, 1% NP-40, 1 mM Na3VO4, 1 mM PMSF). After measurement of proteins, the aliquots of cell extracts containing equivalent amount of proteins (500 ug) were incubated for 1 hour with 50 ul of Protein G-Sepharose for preclearing. Precleared lysates were then incubated with an antiphosphotyrosine PY20 antibody overnight at 4° C. with 50 ul of Protein G-Sepharose as described above. The Sepharose beads were washed two times with lysis buffer and twice with a 10 mM Tris-HCl (pH 7.4) containing 0.1 mM EGTA and 5 mM LiCl. After removal of the last wash, the beads were suspended in kinase buffer (10 mM Tris-HCl, 150 mM NaCl, 5 mM EDTA) containing 20 ug of L-alpha-phosphatidylinositol, 25 mM MgCl2 and 10 uCi of [gamma-^32P]ATP, and incubated for 20 min at room temperature. The reaction was stopped by the addition of 60 ul of HCl 6M and 160 ul of a mixture of chloroform and methanol (1:1). […] Quantifications of the bands was performed using a Kodak image analysis system.

AKT = AKT serine phosphorylation (Western blot) in KGF-stimulated DU145 cells; format: cell-based, human; conditions: DU145, 1×10^−8 M, KGF 10 ng/ml
Method: as §2

human BPH cells = conditions: primary cultures of human BPH cells; Crescioli et al. 2004; cited from earlier work
prostate [4] = conditions: intact and castrated, testosterone-replaced rats; Crescioli et al. 2004; cited from earlier work
prostate [5] = conditions: phase II clinical trials for BPH, preliminary results (Montorsi, 2005); cited from earlier work

## C=C1/C(=C\C=C2/CCC[C@]3(C)C([C@@H](C)C/C=C/C(O)(CC)CC)=CC[C@@H]23)C[C@@H](O)C[C@@H]1F [Compound 1, 1-alpha-fluoro-25-hydroxy-16,23E-diene-26,27-bishomo-20-epi-cholecalciferol]
DU145 cells [1]; DU145, bFGF 10 ng/ml + Compound 1 1×10^−8 M, control 100±8.6
  percentage number of cells, bFGF + Compound 1: 74.1±9.2 percentage
DU145 cells [1]; Homo sapiens, DU-145, basal, 48 h, cell counting, read-out: IC50 of inhibition of basal DU145 cell proliferation
  IC50: 0.0221 ± 0.0191 nM
DU145 cells [1]; KGF 10 ng/ml, 48 h, increasing concentrations of the analogue
  Inhibition of KGF-stimulated DU145 proliferation: completely and dose-dependently inhibits proliferation
PC3 cells; PC3, KGF 10 ng/ml + Compound 1 1×10^−8 M
  percentage number of cells, KGF + Compound 1: 69.9±9.9 percentage
DU145 cells [2]
  percentage Annexin-V positive live cells: 62±1.2 percentage
DU145 cells [3]
  Effect on KGF-stimulated Matrigel invasion of DU145 cells: completely inhibited
KGF receptor (KGFR); DU145, 5 minutes pre-incubation, 1×10^−8 M, KGF 10 ng/ml
  Effect on KGF-induced autotransphosphorylation of KGFR: abrogated
KGF receptor (KGFR); DU145, after 4 hours incubation with 4 ug/ml alpha-amanitin
  Inhibitory effect on KGFR autophosphorylation after alpha-amanitin: still present
PI3K
  Effect on KGF-stimulated PI3K activity: inhibited the stimulatory effect of KGF on PI3K activity
AKT
  Effect on KGF-stimulated AKT serine phosphorylation: inhibited KGF-stimulated AKT serine phosphorylation
Human BPH cells
  Effect on prostate cell proliferation in vitro: decrease prostate cell proliferation
Prostate [4]
  Effect on prostate growth in vivo: inhibition of prostate growth
Prostate [5]
  Prostate volume compared to placebo: significant reduction of prostate volume

## bFGF: growth factor used as stimulus of DU145 proliferation (10 ng/ml)
DU145 cells [1]; DU145, bFGF 10 ng/ml, control 100±8.6
  percentage number of cells, bFGF alone: 138±19.5 percentage

B1: KGF: Keratinocyte growth factor, stimulus, obtained from Prepro Tech EC (protein, UniProt P21781 32-194, looked up)
Fibroblast growth factor 7: CNDMTPEQMATNVNCSSPERHTRSYDYMEGGDIRVRRLFCRTQWYLRIDKRGKVKGTQEMKNNYNIMEIRTVAVGIVAIKGVESEFYLAMNKEGKLYAKKECNEDCNFKELILENHYNTYASAKWTHNGGEMFVALNQKGIPVRGKKTKKEQKTAHFLPMAIT
PC3 cells; PC3, KGF 10 ng/ml
  percentage number of cells, KGF alone: 121.3±13 percentage
